# Source: patent US6737383B1, “Herbicidal oxadiazolidines” (priority 1999, dated 2004)
# How the values were obtained:
# blackgrass = assay: Test B pre/postemergence blackgrass; assay type: in vivo, Alopecurus myosuroides
# How it was run: (§1)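 Herbicidal effect was estimated by eye on a ten-point control scale after plants spent twelve to sixteen days in a greenhouse following soil or foliar treatment. Foliar sprays targeted plants at one to four leaves; all doses were formulated in a non-phytotoxic solvent with surfactant.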
# cocklebur = assay: Test B pre/postemergence cocklebur; assay type: in vivo, Xanthium strumarium
# How it was run: as §1
# soybean = assay: Test B pre/postemergence soybean; assay type: in vivo, Glycine max
# How it was run: as §1
# velvetleaf = assay: Test B pre/postemergence velvetleaf; assay type: in vivo, Abutilon theophrasti
# How it was run: as §1
# sugar beet = assay: Test B pre/postemergence sugar beet; assay type: in vivo, Beta vulgaris
# How it was run: as §1
# crabgrass = assay: Test B pre/postemergence crabgrass; assay type: in vivo, Digitaria sanguinalis
# How it was run: as §1
# smallflower flatsedge = assay: Test B flood test smallflower flatsedge; assay type: in vivo, Cyperus difformis
# How it was run: (§2)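 Read-out is a visual response score from 0 (no effect) to 10 (complete control), assigned by comparison with untreated controls. Treatment was applied at the 2-leaf stage, and plants stayed in the greenhouse for twelve to sixteen days before scoring.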
# purple nutsedge = assay: Test B pre/postemergence purple nutsedge; assay type: in vivo, Cyperus rotundus
# How it was run: as §1
# duck salad = assay: Test B flood test duck salad; assay type: in vivo, Heteranthera limosa
# How it was run: as §2
# surinam grass = assay: Test B pre/postemergence surinam grass; assay type: in vivo, Brachiaria decumbens
# How it was run: as §1
# wild oat = assay: Test B pre/postemergence wild oat; assay type: in vivo, Avena fatua
# How it was run: as §1
# morningglory = assay: Test B pre/postemergence morningglory; assay type: in vivo, Ipomoea hederacea
# How it was run: as §1
# wheat = assay: Test B pre/postemergence wheat; assay type: in vivo, Triticum aestivum
# How it was run: as §1
# rape = assay: Test B pre/postemergence rape; assay type: in vivo, Brassica napus
# How it was run: as §1
# corn = assay: Test B pre/postemergence corn; assay type: in vivo, Zea mays
# How it was run: as §1
# giant foxtail = assay: Test B pre/postemergence giant foxtail; assay type: in vivo, Setaria faberii
# How it was run: as §1
# [1] = Preemergence, Rate 250 g/ha, scale of 0 to 10 where 0 is no effect and 10 is complete control
# [2] = Preemergence, Rate 500 g/ha, scale of 0 to 10 where 0 is no effect and 10 is complete control
# [3] = Rate 62 g/ha, Postemergence, scale of 0 to 10 where 0 is no effect and 10 is complete control
# [4] = Rate 125 g/ha, Postemergence, scale of 0 to 10 where 0 is no effect and 10 is complete control
# [5] = Rate 125 g/ha, Preemergence, scale of 0 to 10 where 0 is no effect and 10 is complete control
# [6] = Rate 250 g/ha, Postemergence, scale of 0 to 10 where 0 is no effect and 10 is complete control
# [7] = Rate 500 g/ha, Postemergence, scale 0 to 10, 0 no effect, 10 complete control
# [8] = Preemergence, Rate 62 g/ha, scale of 0 to 10 where 0 is no effect and 10 is complete control
# [9] = Rate 62 g/ha, headed Pre-emergence (flood test species), scale 0 to 10 (0 no effect, 10 complete control)
# [10] = Rate 125 g/ha, Pre-emergence, flood test species, scale 0 to 10 where 0 is no effect and 10 is complete control
# [11] = Rate 250 g/ha, Pre-emergence, flood-test species, scale 0 to 10, 0 is no effect, 10 is complete control
# [12] = Rate 500 g/ha, Pre-emergence, flood test species, scale 0 to 10 (0 no effect, 10 complete control)
compound,measurement,setting,value
CC(C)N(C(=O)n1oc(=O)n(CC(C)(C)C)c1=O)c1ccccc1 [Compound 276],Blackgrass plant response rating,blackgrass; [1],10
same,"Plant response rating, Blackgrass",blackgrass; [2],10
same,Blackgrass plant response rating,blackgrass; [3],0
same,Blackgrass plant response rating,blackgrass; [4],1
same,Blackgrass plant response rating,blackgrass; [5],6
same,"Plant response rating, Blackgrass",blackgrass; [6],4
same,Blackgrass plant response rating,blackgrass; [7],8
same,Cocklebur plant response rating,cocklebur; [8],0
same,Cocklebur plant response rating,cocklebur; [1],0
same,"Plant response rating, Cocklebur",cocklebur; [2],0
same,Cocklebur plant response rating,cocklebur; [3],0
same,Cocklebur plant response rating,cocklebur; [4],0
same,Cocklebur plant response rating,cocklebur; [5],0
same,"Plant response rating, Cocklebur",cocklebur; [6],0
same,Cocklebur plant response rating,cocklebur; [7],0
same,Soybean plant response rating,soybean; [8],0
same,Soybean plant response rating,soybean; [1],0
same,"Plant response rating, Soybean",soybean; [2],0
same,Soybean plant response rating,soybean; [4],5
same,Soybean plant response rating,soybean; [5],0
same,"Plant response rating, Soybean",soybean; [6],6
same,Soybean plant response rating,soybean; [7],7
same,Velvetleaf plant response rating,velvetleaf; [8],0
same,Velvetleaf plant response rating,velvetleaf; [1],0
same,"Plant response rating, Velvetleaf",velvetleaf; [2],3
same,Velvetleaf plant response rating,velvetleaf; [4],0
same,Velvetleaf plant response rating,velvetleaf; [5],0
same,"Plant response rating, Velvetleaf",velvetleaf; [6],0
same,Velvetleaf plant response rating,velvetleaf; [7],0
same,Sugarbeets plant response rating,sugar beet; [8],0
same,Sugarbeets plant response rating,sugar beet; [1],1
same,"Plant response rating, Sugarbeets",sugar beet; [2],7
same,Sugarbeets plant response rating,sugar beet; [4],0
same,Sugarbeets plant response rating,sugar beet; [5],1
same,"Plant response rating, Sugarbeets",sugar beet; [6],2
same,Sugarbeets plant response rating,sugar beet; [7],2
same,Crabgrass plant response rating,crabgrass; [8],3
same,Crabgrass plant response rating,crabgrass; [1],6
same,"Plant response rating, Crabgrass",crabgrass; [2],7
same,Crabgrass plant response rating,crabgrass; [4],0
same,Crabgrass plant response rating,crabgrass; [5],4
same,"Plant response rating, Crabgrass",crabgrass; [6],6
same,Crabgrass plant response rating,crabgrass; [7],7
same,S. Flatsedge plant response rating,smallflower flatsedge; [9],0
same,S. Flatsedge plant response rating,smallflower flatsedge; [10],0
same,S. Flatsedge plant response rating,smallflower flatsedge; [11],0
same,S. Flatsedge plant response rating,smallflower flatsedge; [12],0
same,Nutsedge plant response rating,purple nutsedge; [8],0
same,Nutsedge plant response rating,purple nutsedge; [4],0
same,Nutsedge plant response rating,purple nutsedge; [5],0
same,"Plant response rating, Nutsedge",purple nutsedge; [6],0
same,Nutsedge plant response rating,purple nutsedge; [7],0
same,Ducksalad plant response rating,duck salad; [9],0
same,Ducksalad plant response rating,duck salad; [10],0
same,Ducksalad plant response rating,duck salad; [11],0
same,Ducksalad plant response rating,duck salad; [12],0
same,B. signalgrass plant response rating,surinam grass; [8],4
same,B. signalgrass plant response rating,surinam grass; [1],10
same,"Plant response rating, B. signalgrass",surinam grass; [2],10
same,B. signalgrass plant response rating,surinam grass; [3],0
same,B. signalgrass plant response rating,surinam grass; [4],0
same,B. signalgrass plant response rating,surinam grass; [5],7
same,"Plant response rating, B. signalgrass",surinam grass; [6],0
same,B. signalgrass plant response rating,surinam grass; [7],0
same,Wild oats plant response rating,wild oat; [8],0
same,Wild oats plant response rating,wild oat; [1],4
same,"Plant response rating, Wild oats",wild oat; [2],6
same,Wild oats plant response rating,wild oat; [4],0
same,"Plant response rating, Wild oats",wild oat; [6],0
same,Wild oats plant response rating,wild oat; [7],0
same,Morningglory plant response rating,morningglory; [8],0
same,Morningglory plant response rating,morningglory; [1],0
same,"Plant response rating, Morningglory",morningglory; [2],0
same,Morningglory plant response rating,morningglory; [4],6
same,Morningglory plant response rating,morningglory; [5],0
same,"Plant response rating, Morningglory",morningglory; [6],6
same,Morningglory plant response rating,morningglory; [7],8
same,Wheat plant response rating,wheat; [8],0
same,Wheat plant response rating,wheat; [1],0
same,"Plant response rating, Wheat",wheat; [2],3
same,Wheat plant response rating,wheat; [4],0
same,Wheat plant response rating,wheat; [5],0
same,"Plant response rating, Wheat",wheat; [6],0
same,Wheat plant response rating,wheat; [7],0
same,Rape plant response rating,rape; [8],0
same,Rape plant response rating,rape; [1],1
same,"Plant response rating, Rape",rape; [2],10
same,Rape plant response rating,rape; [4],0
same,Rape plant response rating,rape; [5],0
same,"Plant response rating, Rape",rape; [6],0
same,Rape plant response rating,rape; [7],0
same,Corn plant response rating,corn; [8],0
same,Corn plant response rating,corn; [1],0
same,"Plant response rating, Corn",corn; [2],0
same,Corn plant response rating,corn; [3],0
same,Corn plant response rating,corn; [4],0
same,Corn plant response rating,corn; [5],0
same,"Plant response rating, Corn",corn; [6],0
same,Corn plant response rating,corn; [7],0
same,Giant foxtail plant response rating,giant foxtail; [8],9
same,Giant foxtail plant response rating,giant foxtail; [1],10
same,"Plant response rating, Giant foxtail",giant foxtail; [2],10
same,Giant foxtail plant response rating,giant foxtail; [4],1
same,Giant foxtail plant response rating,giant foxtail; [5],10
same,"Plant response rating, Giant foxtail",giant foxtail; [6],4
same,Giant foxtail plant response rating,giant foxtail; [7],6
